Results from PMC4256409, “Role of Phenylalanine and Valine^10 Residues in the Antimicrobial Activity and Cytotoxicity of Piscidin-1” (PLoS ONE, 2014).
Where no end group is shown, it is not given here.

How the values were obtained:
[1] = system: P. aeruginosa KCTC2513; assay type: cell-based, Pseudomonas aeruginosa; settings: KCTC2513, 16 h
[2] = system: MDRPA CCARM 2095; assay type: cell-based, multidrug-resistant P. aeruginosa; settings: broth microdilution, 37°C, 16 h, three independent experiments in triplicate, SD 14.0%
[3] = system: MRSA CCARM 3090; assay type: cell-based, Methicillin-resistant S. aureus; settings: CCARM 3090, 16 h
[4] = system: MDREC CCARM 1238; assay type: cell-based, multidrug-resistant E. coli; settings: broth microdilution, 37°C, 16 h, three independent experiments in triplicate, SD 14.0%
[5] = system: S. aureus KCTC3881; assay type: cell-based, Staphylococcus aureus; settings: KCTC3881, 16 h
[6] = system: MDRPA CCARM 2002; assay type: cell-based, multidrug-resistant P. aeruginosa; settings: broth microdilution, 37°C, 16 h, three independent experiments in triplicate, SD 14.0%
[7] = system: E. coli KCTC1682; assay type: cell-based, Escherichia coli; settings: KCTC1682, 16 h
[8] = system: MDRST CCARM 8009; assay type: cell-based, multidrug-resistant S. typhimurium; settings: broth microdilution, 37°C, 16 h, three independent experiments in triplicate, SD 14.0%
[9] = system: MDREC CCARM 1229; assay type: cell-based, multidrug-resistant E. coli; settings: broth microdilution, 37°C, 16 h, three independent experiments in triplicate, SD 14.0%
[10] = system: B. subtilis KCTC3068; assay type: cell-based, Bacillus subtilis; settings: KCTC3068, 16 h
[11] = system: S. aureus KCTC1916; assay type: cell-based, Staphylococcus aureus; settings: KCTC1916, 16 h
[12] = system: MDRAB CCARM 12037; assay type: cell-based, multidrug-resistant Acinetobacter baumanii; settings: broth microdilution, 37°C, 16 h, three independent experiments in triplicate, SD 14.0%
[13] = system: P. aeruginosa KCTC2004; assay type: cell-based, Pseudomonas aeruginosa; settings: KCTC2004, 16 h
[14] = system: MRSA CCARM3089; assay type: cell-based, Methicillin-resistant S. aureus; settings: CCARM3089, 16 h
[15] = system: Standard bacterial strains; assay type: cell-based; settings: average over the 14 standard bacterial strains of Table 2
[16] = system: MDRST CCARM 8007; assay type: cell-based, multidrug-resistant S. typhimurium; settings: broth microdilution, 37°C, 16 h, three independent experiments in triplicate, SD 14.0%
[17] = system: E.coli KCTC2571; assay type: cell-based, Escherichia coli; settings: KCTC2571, 16 h
[18] = system: S. aureus KCTC1621; assay type: cell-based, Staphylococcus aureus; settings: KCTC1621, 16 h
[19] = system: MDRAB CCARM 12036; assay type: cell-based, multidrug-resistant Acinetobacter baumanii; settings: broth microdilution, 37°C, 16 h, three independent experiments in triplicate, SD 14.0%
[20] = system: S. typhimurium KCTC1926; assay type: cell-based, Salmonella typhimurium; settings: KCTC1926, 16 h
[21] = system: MRSA CCARM 3126; assay type: cell-based, Methicillin-resistant S. aureus; settings: CCARM 3126, 16 h
[22] = system: MDRPA CCARM 2003; assay type: cell-based, multidrug-resistant P. aeruginosa; settings: broth microdilution, 37°C, 16 h, three independent experiments in triplicate, SD 14.0%
[23] = system: MRSA CCARM 3108; assay type: cell-based, Methicillin-resistant S. aureus; settings: CCARM 3108, 16 h
[24] = system: MDRPA CCARM 2163; assay type: cell-based, multidrug-resistant P. aeruginosa; settings: broth microdilution, 37°C, 16 h, three independent experiments in triplicate, SD 14.0%
[25] = system: E. coli KCTC2593; assay type: cell-based, Escherichia coli; settings: KCTC2593, 16 h
[26] = system: MRSA CCARM 3114; assay type: cell-based, Methicillin-resistant S. aureus; settings: CCARM 3114, 16 h
[27] = system: MDRAB CCARM 12005; assay type: cell-based, multidrug-resistant Acinetobacter baumanii; settings: broth microdilution, 37°C, 16 h, three independent experiments in triplicate, SD 14.0%
[28] = system: S. epidermidis KCTC1917; assay type: cell-based, Staphylococcus epidermidis; settings: KCTC1917, 16 h
[29] = system: B. subtilis KCTC1021; assay type: cell-based, Bacillus subtilis; settings: KCTC1021, 16 h
[30] = system: MDRST CCARM 8003; assay type: cell-based, multidrug-resistant S. typhimurium; settings: broth microdilution, 37°C, 16 h, three independent experiments in triplicate, SD 14.0%
[31] = system: Drug-resistant bacterial strains; settings: average over the 18 drug-resistant bacterial strains of Table 3
Description: Escherichia coli KCTC 1682, E. coli KCTC 2593, E. coli KCTC 2571, Salmonella typhimurium KCTC 1926, Pseudomonas aeruginosa KCTC 1637, P. aeruginosa KCTC 2004, P. aeruginosa KCTC 2513, Bacillus subtilis KCTC 3068, B. subtilis KCTC 1021, B. subtilis KCTC 1022, Staphylococcus epidermidis KCTC 1917, Staphylococcus aureus KCTC 1621, S. aureus KCTC 1916, and S. aureus KCTC 3881 were purchased from the Korean Collection for Type Cultures, Korea Research Institute of Bioscience & Biotechnology (Taejon, Korea). Methicillin-resistant S. aureus (MRSA) (CCARM 3089, CCARM 3090, CCARM 3108, CCARM 3114, and CCARM 3126), multidrug-resistant E. coli (MDREC) (CCARM 1229 and CCARM 1238), multidrug-resistant S. typhimurium (MDRST) (CCARM 8003, CCARM 8007, and CCARM 8009), multidrug-resistant Acinetobacter baumanii (MDRAB) (CCARM 12005, CCARM 12035, CCARM 12036, CCARM 12037), and multidrug-resistant P. aeruginosa (MDRPA) (CCARM 2002, CCARM 2003, CCARM 2095, and CCARM 2163) were obtained from the Culture Collection of Antibiotic-Resistant Microbes (CCARM) at Seoul Women’s University in Korea. The antimicrobial activities of the peptides against selected organisms, including three Gram-positive, three Gram-negative, and five antibiotic-resistant bacteria, were determined using a broth microdilution assay. Briefly, single colonies of bacteria and fungi were inoculated into Luria-Bertani (LB) medium and cultured overnight at 37°C. An aliquot of the culture was transferred to 10 mL of fresh LB and incubated for an additional 3–5 h at 37°C until it reached the mid-logarithmic phase. Two-fold serial dilutions of the peptides in 1% peptone were prepared. The serial dilutions (100 µL) were added to 100 µL of cells (2×10^6 colony-forming units (CFU)/mL) in 96-well microtiter plates and incubated at 37°C for 16 h. […] MIC values were calculated as the average of triplicate measurements from three independent assays.

[32] = system: MDRAB CCARM 12035; assay type: cell-based, multidrug-resistant Acinetobacter baumanii; settings: broth microdilution, 37°C, 16 h, three independent experiments in triplicate, SD 14.0%
[33] = system: B. subtilis KCTC1022; assay type: cell-based, Bacillus subtilis; settings: KCTC1022, 16 h
[34] = system: P. aeruginosa KCTC1637; assay type: cell-based, Pseudomonas aeruginosa; settings: KCTC1637, 16 h

| Sequence | MIC [1] [µM] | MIC [2] [µM] | MIC [3] [µM] | MIC [4] [µM] | MIC [5] [µM] | MIC [6] [µM] | MIC [7] [µM] | MIC [8] [µM] | MIC [9] [µM] | MIC [10] [µM] | MIC [11] [µM] | MIC [12] [µM] | MIC [13] [µM] | MIC [14] [µM] | Average MIC [15] [µM] | MIC [16] [µM] | MIC [17] [µM] | MIC [18] [µM] | MIC [19] [µM] | MIC [20] [µM] | other results |
| --- | --- | --- | --- | --- | --- | --- | --- | --- | --- | --- | --- | --- | --- | --- | --- | --- | --- | --- | --- | --- | --- |
| FFHHIARGIVHVGKTIHRLVTG [Pis-F6A] | 16 | 4.0 | 32 | 32 | 4.0 | 4.0 | 2.0 | 16 | 32 | 4.0 | 2.0 | 4.0 | 8.0 | 32 | 6.3 | 16 | 4.0 | 4.0 | 4.0 | 16 | MIC [21]: 16 µM; MIC [22]: 4.0 µM; MIC [23]: 16 µM; MIC [24]: 4.0 µM; MIC [25]: 2.0 µM; MIC [26]: 16 µM; MIC [27]: 4.0 µM; MIC [28]: 4.0 µM; MIC [29]: 16 µM; MIC [30]: 32 µM; Average MIC [31]: 15 µM; MIC [32]: 4.0 µM; MIC [33]: 2.0 µM; MIC [34]: 4.0 µM |
| AFHHIFRGIVHVGKTIHRLVTG [Pis-F1A] | 8.0 | 2.0 | 8.0 | 8.0 | 2.0 | 2.0 | 2.0 | 8.0 | 8.0 | 4.0 | 1.0 | 2.0 | 4.0 | 8.0 | 3.2 | 8.0 | 2.0 | 1.0 | 2.0 | 8.0 | MIC [21]: 8.0 µM; MIC [22]: 2.0 µM; MIC [23]: 8.0 µM; MIC [24]: 2.0 µM; MIC [25]: 2.0 µM; MIC [26]: 8.0 µM; MIC [27]: 2.0 µM; MIC [28]: 2.0 µM; MIC [29]: 4.0 µM; MIC [30]: 8.0 µM; Average MIC [31]: 5.3 µM; MIC [32]: 2.0 µM; MIC [33]: 1.0 µM; MIC [34]: 4.0 µM |
| FKHHIFRGIKHVGKTIHRLVTG [Pis-F2K/V10K] | 8.0 | 2.0 | 8.0 | 8.0 | 4.0 | 2.0 | 1.0 | 8.0 | 8.0 | 2.0 | 4.0 | 2.0 | 8.0 | 8.0 | 4.0 | 8.0 | 4.0 | 2.0 | 2.0 | 2.0 | MIC [21]: 8.0 µM; MIC [22]: 2.0 µM; MIC [23]: 8.0 µM; MIC [24]: 2.0 µM; MIC [25]: 4.0 µM; MIC [26]: 8.0 µM; MIC [27]: 2.0 µM; MIC [28]: 4.0 µM; MIC [29]: 8.0 µM; MIC [30]: 16 µM; Average MIC [31]: 5.8 µM; MIC [32]: 2.0 µM; MIC [33]: 4.0 µM; MIC [34]: 1.0 µM |
| FFHHIFRGIKHVGKTIHRLVTG [Pis-V10K] | 2.0 | 2.0 | 8.0 | 4.0 | 1.0 | 2.0 | 1.0 | 4.0 | 4.0 | 1.0 | 2.0 | 2.0 | 2.0 | 8.0 | 1.6 | 4.0 | 2.0 | 1.0 | 2.0 | 1.0 | MIC [21]: 4.0 µM; MIC [22]: 2.0 µM; MIC [23]: 4.0 µM; MIC [24]: 2.0 µM; MIC [25]: 2.0 µM; MIC [26]: 4.0 µM; MIC [27]: 2.0 µM; MIC [28]: 1.0 µM; MIC [29]: 4.0 µM; MIC [30]: 8.0 µM; Average MIC [31]: 3.8 µM; MIC [32]: 2.0 µM; MIC [33]: 2.0 µM; MIC [34]: 1.0 µM |
| KFHHIFRGIVHVGKTIHRLVTG [Pis-F1K] | 4.0 | 2.0 | 8.0 | 8.0 | 2.0 | 2.0 | 4.0 | 4.0 | 8.0 | 2.0 | 2.0 | 2.0 | 4.0 | 8.0 | 2.6 | 4.0 | 2.0 | 2.0 | 2.0 | 4.0 | MIC [21]: 8.0 µM; MIC [22]: 2.0 µM; MIC [23]: 8.0 µM; MIC [24]: 2.0 µM; MIC [25]: 2.0 µM; MIC [26]: 8.0 µM; MIC [27]: 2.0 µM; MIC [28]: 2.0 µM; MIC [29]: 2.0 µM; MIC [30]: 4.0 µM; Average MIC [31]: 4.7 µM; MIC [32]: 2.0 µM; MIC [33]: 1.0 µM; MIC [34]: 4.0 µM |
